Results as given in patent US10874108B2, “Anti-microbial compositions” (5D HEALTH PROTECTION GROUP LTD, priority 2016, dated 2020).

Tests used:
[1] = Cumulative elution from carbopol hydrogel; format: physicochemical
Procedure: Hydrogels were loaded with EDTA compounds and investigated for elution of the silver, zinc and EDTA. Carbopol ETD 2020 was obtained from Lubrizol Advanced Materials, Inc. USA. 1.2 g carbopol power was dissolved in 42.36 g deionized water for 1 hour to fully hydrate. Then 8.4 ml of the EDTA complexes and 4.8 g glycerine were added into carbopol solution with vigorous stirring; finally, 3 g 50% triethanolamine was dropped into the suspension to obtain final products: carbopol hydrogel with EDTA complexes.
The silver, zinc and EDTA increased in saline day by day, which indicated the release of silver, zinc and EDTA can be controlled from the hydrogel.

[2] = Elution from loaded gauze; format: physicochemical
Procedure: The gauzes were weighed before soaking, after soaking and after drying for 24 hours. To assess the elution profile of the EDTA complexes from gauze, the loaded gauzes were immersed in water and saline (Table 6 and Table 7). […] After day 2, the eluting of silver, zinc and EDTA decreased more than 5 times compared to day 1.

cells = assay: Direct cytotoxicity, Neutral Red Uptake assay

O=C([O-])CN(CCN(CC(=O)[O-])CC(=O)[O-])CC(=O)[O-].[Ag+].[Ag+].[Zn+2] [EDTA compound 4, sample 2]
Elution in saline (ppm) EDTA ([1]; day 1): 16.64 ± 1.41 ppm | Elution in saline (ppm) Silver ([1]; day 1): 21.10 ± 1.80 ppm | Elution in saline (ppm) Zinc ([1]; day 1): 15.30 ± 2.12 ppm | Elution in water (ppm) EDTA ([1]; day 1): 20.80 ± 3.07 ppm | Elution in water (ppm) Silver ([1]; day 1): 28.41 ± 3.48 ppm | Elution in water (ppm) Zinc ([1]; day 1): 20.77 ± 3.25 ppm | Elution in saline (ppm) EDTA ([1]; day 2): 17.31 ± 1.43 ppm | Elution in saline (ppm) Silver ([1]; day 2): 26.06 ± 2.03 ppm | Elution in saline (ppm) Zinc ([1]; day 2): 20.51 ± 3.94 ppm | Elution in water (ppm) EDTA ([1]; day 2): 22.50 ± 2.86 ppm | Elution in water (ppm) Silver ([1]; day 2): 29.03 ± 4.71 ppm | Elution in water (ppm) Zinc ([1]; day 2): 23.57 ± 2.12 ppm | Elution in saline (ppm) EDTA ([1]; day 3): 21.81 ± 0.42 ppm | Elution in saline (ppm) Silver ([1]; day 3): 31.27 ± 0.96 ppm | Elution in saline (ppm) Zinc ([1]; day 3): 23.98 ± 1.92 ppm | Elution in water (ppm) EDTA ([1]; day 3): 24.64 ± 1.57 ppm | Elution in water (ppm) Silver ([1]; day 3): 29.12 ± 2.73 ppm | Elution in water (ppm) Zinc ([1]; day 3): 22.53 ± 7.30 ppm | Elution in saline (ppm) EDTA ([1]; day 4): 22.70 ± 1.70 ppm | Elution in saline (ppm) Silver ([1]; day 4): 32.50 ± 0.96 ppm | Elution in saline (ppm) Zinc ([1]; day 4): 26.11 ± 1.08 ppm | Elution in water (ppm) EDTA ([1]; day 4): 24.30 ± 1.51 ppm | Elution in water (ppm) Silver ([1]; day 4): 29.89 ± 3.51 ppm | Elution in water (ppm) Zinc ([1]; day 4): 22.23 ± 1.97 ppm | Elution in saline (ppm) EDTA ([1]; day 5): 25.02 ± 0.96 ppm | Elution in saline (ppm) Silver ([1]; day 5): 37.54 ± 0.61 ppm | Elution in saline (ppm) Zinc ([1]; day 5): 27.28 ± 3.01 ppm | Elution in water (ppm) EDTA ([1]; day 5): 23.03 ± 3.46 ppm | Elution in water (ppm) Silver ([1]; day 5): 30.64 ± 5.25 ppm | Elution in water (ppm) Zinc ([1]; day 5): 23.54 ± 1.23 ppm | Elution in saline (ppm) EDTA ([2]; day 1): 17.31 ± 1.77 ppm | Elution in saline (ppm) Silver ([2]; day 1): 27.32 ± 3.84 ppm | Elution in saline (ppm) Zinc ([2]; day 1): 22.71 ± 1.75 ppm | Elution in water (ppm) EDTA ([2]; day 1): 13.23 ± 1.28 ppm | Elution in water (ppm) Silver ([2]; day 1): 23.32 ± 3.95 ppm | Elution in water (ppm) Zinc ([2]; day 1): 17.08 ± 3.09 ppm | Elution in saline (ppm) EDTA ([2]; day 2): 6.84 ± 2.67 ppm | Elution in saline (ppm) Silver ([2]; day 2): 8.36 ± 2.37 ppm | Elution in saline (ppm) Zinc ([2]; day 2): 7.67 ± 2.03 ppm | Elution in water (ppm) EDTA ([2]; day 2): 8.74 ± 2.01 ppm | Elution in water (ppm) Silver ([2]; day 2): 16.28 ± 3.75 ppm | Elution in water (ppm) Zinc ([2]; day 2): 12.78 ± 1.55 ppm | Elution in saline (ppm) EDTA ([2]; day 3): 1.75 ± 0.31 ppm | Elution in saline (ppm) Silver ([2]; day 3): 2.55 ± 0.94 ppm | Elution in saline (ppm) Zinc ([2]; day 3): 3.70 ± 0.20 ppm | Elution in water (ppm) EDTA ([2]; day 3): 1.55 ± 0.56 ppm | Elution in water (ppm) Silver ([2]; day 3): 3.82 ± 1.39 ppm | Elution in water (ppm) Zinc ([2]; day 3): 4.21 ± 1.19 ppm | Elution in saline (ppm) EDTA ([2]; day 4): 1.11 ± 0.61 ppm | Elution in saline (ppm) Silver ([2]; day 4): 1.46 ± 0.99 ppm | Elution in saline (ppm) Zinc ([2]; day 4): 3.48 ± 0.68 ppm | Elution in water (ppm) EDTA ([2]; day 4): 1.13 ± 0.57 ppm | Elution in water (ppm) Silver ([2]; day 4): 1.42 ± 0.40 ppm | Elution in water (ppm) Zinc ([2]; day 4): 3.37 ± 0.26 ppm | Elution in saline (ppm) EDTA ([2]; day 5): 0.54 ± 0.11 ppm | Elution in saline (ppm) Silver ([2]; day 5): 1.57 ± 1.43 ppm | Elution in saline (ppm) Zinc ([2]; day 5): 2.95 ± 1.46 ppm | Elution in water (ppm) EDTA ([2]; day 5): 0.79 ± 0.19 ppm | Elution in water (ppm) Silver ([2]; day 5): 0.59 ± 0.35 ppm | Elution in water (ppm) Zinc ([2]; day 5): 2.49 ± 0.88 ppm

CCCCCCCCCCCCOS(=O)(=O)[O-].[Na+] [SDS, sodium dodecyl sulphate, reference compound]
Interpretation (cells; 0.05 mg/ml): Cytotoxic (if the percentage viability is less than 70% of the untreated control, then the substance is considered cytotoxic) | Percentage of Control/Percentage Viability (%) (cells; 0.05 mg/ml): 6.57 ± 0% | Interpretation (cells; 0.1 mg/ml): Cytotoxic (if the percentage viability is less than 70% of the untreated control, then the substance is considered cytotoxic) | Percentage of Control/Percentage Viability (%) (cells; 0.1 mg/ml): 6.57 ± 0% | Interpretation (cells; 0.15 mg/ml): Cytotoxic (if the percentage viability is less than 70% of the untreated control, then the substance is considered cytotoxic) | Percentage of Control/Percentage Viability (%) (cells; 0.15 mg/ml): 6.57 ± 0% | Interpretation (cells; 0.2 mg/ml): Cytotoxic (if the percentage viability is less than 70% of the untreated control, then the substance is considered cytotoxic) | Percentage of Control/Percentage Viability (%) (cells; 0.2 mg/ml): 6.57 ± 0%

O=C([O-])CN(CCN(CC(=O)[O-])CC(=O)[O-])CC(=O)[O-].[Ag+].[Ag+].[Zn+2] [EDTA compound 4, sample 1]
Elution in saline (ppm) EDTA ([1]; day 1): 26.39 ± 2.06 ppm | Elution in saline (ppm) Silver ([1]; day 1): 32.09 ± 3.02 ppm | Elution in saline (ppm) Zinc ([1]; day 1): 22.12 ± 3.31 ppm | Elution in water (ppm) EDTA ([1]; day 1): 31.12 ± 5.40 ppm | Elution in water (ppm) Silver ([1]; day 1): 44.39 ± 5.98 ppm | Elution in water (ppm) Zinc ([1]; day 1): 31.88 ± 3.53 ppm | Elution in saline (ppm) EDTA ([1]; day 2): 27.18 ± 2.34 ppm | Elution in saline (ppm) Silver ([1]; day 2): 37.09 ± 2.91 ppm | Elution in saline (ppm) Zinc ([1]; day 2): 30.90 ± 5.81 ppm | Elution in water (ppm) EDTA ([1]; day 2): 26.21 ± 4.20 ppm | Elution in water (ppm) Silver ([1]; day 2): 47.13 ± 5.03 ppm | Elution in water (ppm) Zinc ([1]; day 2): 36.09 ± 3.61 ppm | Elution in saline (ppm) EDTA ([1]; day 3): 35.02 ± 0.72 ppm | Elution in saline (ppm) Silver ([1]; day 3): 47.05 ± 2.79 ppm | Elution in saline (ppm) Zinc ([1]; day 3): 36.73 ± 3.64 ppm | Elution in water (ppm) EDTA ([1]; day 3): 37.28 ± 2.58 ppm | Elution in water (ppm) Silver ([1]; day 3): 45.58 ± 4.54 ppm | Elution in water (ppm) Zinc ([1]; day 3): 34.28 ± 4.55 ppm | Elution in saline (ppm) EDTA ([1]; day 4): 37.71 ± 1.92 ppm | Elution in saline (ppm) Silver ([1]; day 4): 51.24 ± 1.53 ppm | Elution in saline (ppm) Zinc ([1]; day 4): 40.31 ± 1.84 ppm | Elution in water (ppm) EDTA ([1]; day 4): 37.53 ± 3.27 ppm | Elution in water (ppm) Silver ([1]; day 4): 46.88 ± 6.86 ppm | Elution in water (ppm) Zinc ([1]; day 4): 33.78 ± 2.20 ppm | Elution in saline (ppm) EDTA ([1]; day 5): 40.57 ± 1.41 ppm | Elution in saline (ppm) Silver ([1]; day 5): 59.55 ± 1.21 ppm | Elution in saline (ppm) Zinc ([1]; day 5): 43.22 ± 3.91 ppm | Elution in water (ppm) EDTA ([1]; day 5): 35.11 ± 5.39 ppm | Elution in water (ppm) Silver ([1]; day 5): 45.91 ± 7.04 ppm | Elution in water (ppm) Zinc ([1]; day 5): 35.99 ± 1.16 ppm | Elution in saline (ppm) EDTA ([2]; day 1): 24.65 ± 2.40 ppm | Elution in saline (ppm) Silver ([2]; day 1): 49.91 ± 2.29 ppm | Elution in saline (ppm) Zinc ([2]; day 1): 29.69 ± 2.40 ppm | Elution in water (ppm) EDTA ([2]; day 1): 18.09 ± 3.19 ppm | Elution in water (ppm) Silver ([2]; day 1): 35.89 ± 5.66 ppm | Elution in water (ppm) Zinc ([2]; day 1): 21.99 ± 2.85 ppm | Elution in saline (ppm) EDTA ([2]; day 2): 9.19 ± 3.42 ppm | Elution in saline (ppm) Silver ([2]; day 2): 12.76 ± 4.44 ppm | Elution in saline (ppm) Zinc ([2]; day 2): 9.14 ± 2.77 ppm | Elution in water (ppm) EDTA ([2]; day 2): 12.54 ± 3.11 ppm | Elution in water (ppm) Silver ([2]; day 2): 25.27 ± 5.63 ppm | Elution in water (ppm) Zinc ([2]; day 2): 15.66 ± 2.73 ppm | Elution in saline (ppm) EDTA ([2]; day 3): 1.83 ± 0.26 ppm | Elution in saline (ppm) Silver ([2]; day 3): 3.43 ± 0.54 ppm | Elution in saline (ppm) Zinc ([2]; day 3): 3.71 ± 0.27 ppm | Elution in water (ppm) EDTA ([2]; day 3): 1.90 ± 0.79 ppm | Elution in water (ppm) Silver ([2]; day 3): 4.93 ± 2.56 ppm | Elution in water (ppm) Zinc ([2]; day 3): 4.42 ± 1.62 ppm | Elution in saline (ppm) EDTA ([2]; day 4): 1.28 ± 0.84 ppm | Elution in saline (ppm) Silver ([2]; day 4): 2.29 ± 1.73 ppm | Elution in saline (ppm) Zinc ([2]; day 4): 3.42 ± 0.93 ppm | Elution in water (ppm) EDTA ([2]; day 4): 1.27 ± 0.84 ppm | Elution in water (ppm) Silver ([2]; day 4): 1.75 ± 0.76 ppm | Elution in water (ppm) Zinc ([2]; day 4): 3.26 ± 0.35 ppm | Elution in saline (ppm) EDTA ([2]; day 5): 0.45 ± 0.15 ppm | Elution in saline (ppm) Silver ([2]; day 5): 2.52 ± 2.26 ppm | Elution in saline (ppm) Zinc ([2]; day 5): 2.68 ± 2.00 ppm | Elution in water (ppm) EDTA ([2]; day 5): 0.87 ± 0.36 ppm | Elution in water (ppm) Silver ([2]; day 5): 0.85 ± 0.34 ppm | Elution in water (ppm) Zinc ([2]; day 5): 2.06 ± 1.21 ppm
